# Laboratory results as given in BindingDB's records for doi:10.1021/acs.jmedchem.9b01143 (2019).
# Target: Activin receptor type-2A (ACVR2A) (Homo sapiens) (UniProt P27037)
# Test: Inhibition of human recombinant ACTR2 (162 to end residues) using casein as substrate incubated for 120 mins in presence of [gamma-33P]ATP by radiometric scintillation counting analysis
compound,measurement,value
CN(C)c1ccc(C(=O)Nc2cccc(NC(=O)COc3ccc4c(=O)ccoc4c3)c2)cc1,IC50,> 10 µM
